Calls of active or inactive are those of the source. The rule behind the calls is not given here.

Data on 21 compounds can be found in ChEMBL document CHEMBL3627645, “Synthesis and activities of new indolopyrrolobenzodiazepine derivatives toward acute myeloid leukemia cells” (Bioorg Med Chem, 2015).

Data set [1] concerns the target T1, Serine/threonine-protein kinase pim-1 (Homo sapiens, UniProt P11309). Nature of the data set: Inhibition of human Pim-1 using RSRHSSYPAGT as substrate assessed as residual activity at 10 uM measured for 30 mins in presence of [gamma-33P]-ATP relative to control.
Target sequence in this assay (P11309 whole entry, looked up): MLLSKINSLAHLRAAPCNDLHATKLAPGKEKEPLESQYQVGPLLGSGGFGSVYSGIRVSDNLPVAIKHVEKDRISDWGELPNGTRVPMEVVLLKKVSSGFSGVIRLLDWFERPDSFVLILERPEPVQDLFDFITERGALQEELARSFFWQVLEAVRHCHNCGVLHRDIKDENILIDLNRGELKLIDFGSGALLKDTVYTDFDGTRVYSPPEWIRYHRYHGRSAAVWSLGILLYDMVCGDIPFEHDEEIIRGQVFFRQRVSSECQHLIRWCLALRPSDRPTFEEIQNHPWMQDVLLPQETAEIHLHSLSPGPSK
The target of data set [2] is T1, Serine/threonine-protein kinase pim-1. The data set is described as follows: Inhibition of human Pim-1 using RSRHSSYPAGT as substrate assessed as residual activity at 1 uM measured for 30 mins in presence of [gamma-33P]-ATP relative to control.
Target sequence in this assay (P11309 whole entry, looked up): as above
Data set [3] has as its target T2, Serine/threonine-protein kinase pim-3 (Homo sapiens, UniProt Q86V86). Nature of the data set: Inhibition of human Pim-3 using RSRHSSYPAGT as substrate assessed as residual activity at 10 uM measured for 30 mins in presence of [gamma-33P]-ATP relative to control.
The target of data set [4] is T2, Serine/threonine-protein kinase pim-3. The data set is described as follows: Inhibition of human Pim-3 using RSRHSSYPAGT as substrate assessed as residual activity at 1 uM measured for 30 mins in presence of [gamma-33P]-ATP relative to control.
The target in data set [5] is T1, Serine/threonine-protein kinase pim-1. The data set is described as follows: Inhibition of human Pim-1 using RSRHSSYPAGT as substrate measured for 30 mins in presence of [gamma-33P]-ATP.
Target sequence in this assay (P11309 whole entry): as the sequence (P11309 whole entry, looked up) above
In data set [6] the target is T2, Serine/threonine-protein kinase pim-3. Nature of the data set: Inhibition of human Pim-3 using RSRHSSYPAGT as substrate measured for 30 mins in presence of [gamma-33P]-ATP.
In data set [7] the test system is IPC81. The data set is described as follows: Induction of apoptosis in rat IPC81 cells assessed as chromatin condensation and fragmentation at 10 to 100 uM after 48 to 72 hrs by Hoechst 33342 staining-based visual and UV microscopic analysis. It is filed as functional, cell-based.
Data set [8] relates to IPC81. Nature of the data set: Induction of apoptosis in rat IPC81 cells overexpressing Bcl-2 assessed as chromatin condensation and fragmentation at 10 to 100 uM after 48 hrs by Hoechst 33342 staining-based visual and UV microscopic analysis. It counts as functional, cell-based.
The next data set deals with NRK. The data set is described as follows: Induction of apoptosis in NRK cells assessed as chromatin condensation and fragmentation at 10 to 100 uM after 48 hrs by Hoechst 33342 staining-based UV-vis microscopic analysis. It is filed as cell-based. The following applies: rat.
The target of data set [9] is T1, Serine/threonine-protein kinase pim-1. Nature of the data set: Inhibition of Pim-1 (unknown origin).
Target sequence in this assay (P11309 whole entry): as the sequence (P11309 whole entry, looked up) above
Data set [10] has as its target T2, Serine/threonine-protein kinase pim-3. Nature of the data set: Inhibition of Pim-3 (unknown origin).
Data set [11] concerns IPC81. Nature of the data set: Induction of apoptosis in rat IPC81 cells assessed as chromatin condensation and fragmentation at 100 uM after 72 hrs by Hoechst 33342 staining-based visual and UV microscopic analysis. It is filed as functional, cell-based.

Regarding `Cc1ccc(S(=O)(=O)NC2Cn3cc(C=O)c4ccc5c6ccccc6n(c5c43)C2)cc1` (centres undefined), the Activity was found to be 32% in data set [1], 52% in data set [2], 34% in data set [3] and 55% in data set [4].
In the same order, the values of `O=Cc1cn2c3c1ccc1c4ccccc4n(c13)CC(OCCCN1CCCC1)C2` (centres undefined) are 24.1%, 58%, 18.3% and 54%.
In the same order, the values of `CCN(CC)CCOC1Cn2cc(C=O)c3ccc4c5ccccc5n(c4c32)C1` (centres undefined) are 35%, 78%, 28% and 59%.
For the compound `N#CCOC1Cn2cc(C=O)c3ccc4c5ccccc5n(c4c32)C1` (centres undefined), the Activity is 1.9% in data set [1]; 9.5% in data set [2]; 5% in data set [3]; 10.3% in data set [4]; “Toxic” in the data set with NRK. Moreover, the values for the IC50 in [5] and in data set [6] were 390 nM and 190 nM, respectively. Besides, the result with IPC81 [7] and in the data set on IPC81 [8] was inactive.
With `CN1CCN(CCOC2Cn3cc(C=O)c4ccc5c6ccccc6n(c5c43)C2)CC1` (centres undefined), the Activity in data set [1] worked out at 35%; in data set [2], 94%; in data set [3], 28%; in [4], 60%.
In the same order, the values of `Cc1ccc(S(=O)(=O)OCCCOC2Cn3cc(C=O)c4ccc5c6ccccc6n(c5c43)C2)cc1` (centres undefined) are 94%, 81%, 79% and 70.8%.
For `O=Cc1cn2c3c1ccc1c4ccccc4n(c13)CC(O)C2` (centres undefined), the Activity was 5% in data set [1], 38% in data set [2], 3.5% in data set [3] and 13.3% in [4]. The IC50 is 1400 nM in [5] and 380 nM in [6].
For the compound `O=Cc1cn2c3c1ccc1c4ccccc4n(c13)CCCCC2`, the IC50 in data set [9] amounted to 9 nM; in [10], 26 nM.
For `CN1CCN(CCCOC2Cn3cc(C=O)c4ccc5c6ccccc6n(c5c43)C2)CC1` (centres undefined), the Activity in [1] was determined as 22.4%; in data set [2], 58.2%; in data set [3] it was 26%; in data set [4], 51%.
For `Cc1ccc(S(=O)(=O)OCCOC2Cn3cc(C=O)c4ccc5c6ccccc6n(c5c43)C2)cc1` (centres undefined) the same measures were 102%, 78%, 80% and 65%.
`O=Cc1cn2c3c1ccc1c4ccccc4n(c13)CC(OCCN1CCOCC1)C2` (centres undefined): the Activity turned out to be 34% in data set [1], 57% in data set [2], 35% in data set [3] and 65.8% in data set [4].
For `O=Cc1cn2c3c1ccc1c4ccccc4n(c13)CC(OCCN1CCCC1)C2` (centres undefined) the same measures were 17.8%, 84%, 16.4% and 48%.
For the compound `O=Cc1cn2c3c1ccc1c4ccccc4n(c13)CC(OCCO)C2` (centres undefined), the Activity in data set [1] is 9%; in data set [2] it was 44%; in data set [3], 10.8%; in data set [4] it was 30%; in the data set with NRK, “Toxic”. In addition, the results for the IC50 in data set [5] and in data set [6] were 1100 nM and 700 nM, respectively. The outcome with IPC81 [7] and with IPC81 [11] was Active. Further, the outcome in the data set with IPC81 [8] was inactive.
For the compound `O=Cc1cn2c3c1ccc1c4ccccc4n(c13)CC(OCCCO)C2` (centres undefined), the Activity in data set [1] was found to be 21%; in [2], 54.9%; in [3] it was 16%; in data set [4], 49.6%.
For the compound `O=Cc1cn2c3c1ccc1c4ccccc4n(c13)CC(OCCCN1CCCCC1)C2` (centres undefined), the Activity was 31% in data set [1]; 66% in data set [2]; 20% in [3]; 45% in data set [4]; “Non-toxic” in the data set with NRK. Also, the result in the data set on IPC81 [7], in the data set on IPC81 [8] and with IPC81 [11] was Active.
For the compound `O=Cc1cn2c3c1ccc1c4ccccc4n(c13)CC(OCCN1CCCCC1)C2` (centres undefined), the Activity in data set [1] was 30%; in data set [2], 82%; in data set [3], 22.2%; in data set [4] it was 54%.
As to `O=Cc1cn2c3c1ccc1c4ccccc4n(c13)CCC2`, the IC50 in [9] is 42 nM; in data set [10], 50 nM.
For the compound `CS(=O)(=O)OC1Cn2cc(C=O)c3ccc4c5ccccc5n(c4c32)C1` (centres undefined), the Activity in [1] came out at 6.6%; in data set [2], 24%; in data set [3], 8.1%; in data set [4] it was 25%. The IC50 in data set [5] was found to be 1560 nM; in data set [6] it was 600 nM.
With `CCN(CC)CCCOC1Cn2cc(C=O)c3ccc4c5ccccc5n(c4c32)C1` (centres undefined), the Activity in [1] was determined as 29%; in [2], 71.6%; in data set [3] it was 24%; in data set [4], 60.8%.
For `O=Cc1cn2c3c1ccc1c4ccccc4n(c13)CC(OCCCN1CCOCC1)C2` (centres undefined) the same measures were 28%, 75%, 24% and 70%.
Consider `O=Cc1cn2c3c1ccc1c4ccccc4n(c13)CC(OCCCBr)C2` (centres undefined), for which the Activity was 19% in [1]; 54% in data set [2]; 11% in data set [3]; 40% in [4]; “Non-toxic” with NRK. Moreover, the results for the IC50 in data set [5] and in data set [6] were 740 nM and 340 nM, respectively. The outcome with IPC81 [7] and with IPC81 [8] was inactive.

One may read the IC50 as the point on the concentration scale where inhibition reaches its midpoint.
